Where two headings read alike, the source gives them in different places.
Legend:
[1] = rats orally; cited from earlier work
[2] = system: T47D breast cancer tissue cells; experiment: MTS breast cancer mitochondrial activity assay; type: cell-based; details: for MTS suppression ratio (mean OD treated / mean OD control), 24 h: culture time 24 h; for MTS suppression ratio (mean OD treated / mean OD control), 24 h / MTS suppression ratio (mean OD treated / mean OD control), 48 h: 1.0 = no effect; for MTS suppression ratio (mean OD treated / mean OD control), 48 h: culture time 48 h
Method: In addition to and equal to the effects of high HLB surfactants for comparative testing. These comparative studies were performed and results are reported in the above table. Metabolism was comparatively measured with controls and other extracts as to the reduction of mitochondrial activity, (MTS). This compound is a substrate for the mitochondrial enzymes—and is reduced to a blue formazan product.
In the first experiments—The extracted therapeutic test agents were derived from specified tissue. Water extracts of the crushed tissue, were also prepared. For the later experiments, specific varieties of extracts were prepared and examined: Cells were obtained from American Type Culture Collection (ATCC, Washington, D.C.) and were cultured as recommended by ATCC. Experiments were performed in 96 well microtiter plates. Each well contained 1.0×10^4 cells suspended in a total volume of […]. Test wells contained the designated amount of extract in cell culture medium. Control wells contained the same amount of extract solvent in medium. Plates were incubated in an atmosphere of 5% C02 for 24 or 48 hours with extract or solvent. At this time, […] were added to each well and incubation was continued for an additional 4 hours after which time the optical density (OD) at […] of each well was recorded. In each experiment, each sample was assayed in triplicate and the mean optical density (OD) for the three wells containing the same culture was calculated.
Data are presented as suppression ratios. The suppression ratio defined here as the mean optical density (OD) for the wells containing extract divided by the mean optical density (OD) for the control wells.
The purpose of the work was to determine which therapeutic agent extracts (further separated by chromatography) explored through this methodology for anti-cancer activity. The data presented here represents semi-quantitative anti-cancer screening tests. Extracts with ratios in the range 0.51-0.74 were considered moderately active and therefore appropriate for considered use along with preventive anti-cancer treatment and active anti-cancer treatment. In co-use with anti-cancer treatment and radiation treatment, may lessen the dose and the side effects of these current therapeutic agents. Extracts with metabolism suppression ratios less than or equal to 0.5 represented a suppression of metabolism of at least 50% or greater than that of the controls and were considered definitely active potential anti-cancer agents, as was the case of High HLB Tween 80 with ethylene maturation apoptosis promoting factor with a 76% suppression of mitochondrial metabolism of cancer cells.

[3] = Circulation, blood viscosity and sedimentation rate with intermediate HLB lipid; type: in vivo; details: HLB 8 to 11
Source text: The amount of surface-active polar lipid to include in the composition can be determined by viscosity measurements. Tissue concentration can be measured by viscosity (as used in blood serum which normally is 1.12 to 1.22 centipoise with upper limit of three). In the case of the intermediate HLB 8 to 11 (as exemplified by PC phosphatidylcholine when so used) circulation is improved 25% however there is no change in viscosity or the red blood cell sedimentation rate at these HLB ranges because of the fact that biophysical functional effects is upon the cell membrane. With its use the red cell membrane becomes more plastic, and is made more pliable thereby enhancing circulation and oxygenation.
Component No. 2 contains self-vesiculating essence of HLB 8 to 11 or 12, ideally 10 to 11, cell membrane forming and repairing liquid crystal phosphatidylcholine (PC), thereby increasing pliability of the red cell, blood vessel and endothelial membrane enhancing circulatory function by 25%. Component No. 2 optionally contains high HLB surfactants with packing parameters that not only enhance biologic function and efficiency of protein enzymes and their substrate but also promotes protein refolding and thereby normalizing biologic function. This helps to normalize the biologic function of disease promoting protein structures of Alzheimer's disease, Parkinson's disease, and Mad Cow disease. […]

[4] = rats and mice; cited from earlier work

Compound	LD 50 [1] [mg per kilogram]	MTS suppression ratio (mean OD treated / mean OD control), 24 h ([2]; T47D cells)	MTS suppression ratio (mean OD treated / mean OD control), 48 h ([2]; T47D cells)	improvement of circulation / circulatory function [3] [%]	LD 50 [4] [ml per kilogram]	suppression of mitochondrial metabolism of cancer cells [2] [%]	% normalization of Breast cancer cells ([2]; T47D cells) [%]
CCCCCCCCCCCCOS(=O)(=O)[O-].[Na+] [sodium lauryl sulfate]	1288						
phosphatidylcholine [PC]		0.92	0.98	25			
polyglycerol polyricinolate [PGPR]					7.5		
polyoxyethylene Sorbitan Monooleate [Tween 80]		0.48	0.24		7.5	76	76

— patent publication US20050260181A1, “Compositions and methods for tissue repair” (Immunopath Profile, Inc., priority 2004, published 2005)
